These results are taken from ChEMBL document CHEMBL6121042, “Isolation of Antiplasmodial Oxazoles and Isoflavonoids from the Roots of Oxytropis trichophysa and Total Synthesis of Oxazole-type Alkaloids” (J Nat Prod, 2025).

The test system of one data set is Plasmodium falciparum. Kind of data set: Antiplasmodial activity against Plasmodium falciparum 3D7 infected in red blood cells assessed as parasitic growth inhibition incubated for 72 hrs by SYBR Green I staining based analysis. It is filed as functional, organism-based. Conditions: for IC50: 3D7, 72 h.
A short description of data set [1]: Cytotoxicity against human HFF cells assessed as reduction in cell viability incubated for 72 hrs by CCK-8 assay. Type of data set: toxicity, cell-based. In general terms: Tetrazolium assays rely on reduction of a dye to a coloured formazan, in cell work by metabolically active cells.
Data set [2] can be described thus: Selectivity index, ratio of CC50 for human HFF cells to IC50 for Plasmodium falciparum 3D7. It is filed as toxicity, cell-based. The following applies: read-out: Selectivity Index.

Calls of active or inactive are those of the source. The rule behind the calls is not given here.

For orientation: IC50 means the midpoint of a concentration-inhibition curve. What is called CC50 is the concentration that lowers cell viability or growth by half.

Consider `COc1ccc2c(c1OC)O[C@H]1c3ccc(O)cc3OC[C@@H]21`, for which the result in the data set with Plasmodium falciparum was inactive.

`Oc1ccccc1-c1cnc(-c2ccccc2)o1`: the concentration for half-maximal inhibition (IC50) in the data set on Plasmodium falciparum amounted to 4.6 µM. In addition, the CC50 at 72 h in data set [1] was greater than 100 µM. For the same molecule, in data set [2], the selectivity ratio is greater than 18.8.

On to `COc1c(O)cc2c(c1OC)O[C@H]1c3ccc(O)cc3OC[C@@H]21`, for which the result in the data set on Plasmodium falciparum was inactive.

As for `Oc1cccc(-c2cnc(-c3ccccc3)o2)c1O`, the IC50 in the data set with Plasmodium falciparum was 3.1 µM. The CC50 at 72 h in data set [1] came out at 8.5 µM. Also, in data set [2], the selectivity ratio was determined as 2.7.

On to `COc1ccc([C@@H]2COc3cc(O)ccc3C2)c(O)c1OC`, for which the outcome in the data set on Plasmodium falciparum was inactive.

For `C[C@@H]1CC[C@H]2[C@@H](C)C(=O)O[C@@H]3O[C@@]4(C)CC[C@@H]1[C@]32OO4` [ARTEMISININ], the IC50 with Plasmodium falciparum amounted to 0.025 µM. In addition, the half-maximal cytotoxic concentration (CC50) at 72 h in data set [1] is greater than 200 µM. The selectivity ratio in data set [2] is greater than 7890.

As for `COC1=C(OC)C(=O)C([C@@H]2COc3cc(O)ccc3C2)=CC1=O`, the IC50 with Plasmodium falciparum turned out to be 5.8 µM. Besides, the CC50 at 72 h in data set [1] amounted to 13.7 µM. Also, the selectivity ratio in data set [2] worked out at 2.3.

Regarding `COc1c(O)cc([C@@H]2COc3cc(O)ccc3C2)c(O)c1OC`, in the data set on Plasmodium falciparum, the IC50 came out at 6.2 µM. In data set [1], the half-maximal cytotoxic concentration (CC50) at 72 h came out at 5.6 µM. Besides, the selectivity ratio in data set [2] was 0.9.

Take `Oc1ccc(O)c(-c2cnc(-c3ccccc3)o2)c1`: the IC50 in the data set with Plasmodium falciparum was found to be 5.5 µM. For the same molecule, in data set [1], the CC50 at 72 h came to 69.3 µM. The selectivity ratio in data set [2] is 9.4.

With `COc1cc([C@@H]2COc3cc(O)ccc3C2)c(O)c(OC)c1OC`, the result with Plasmodium falciparum was inactive.

Consider `c1ccc(COc2ccc(-c3ncc(-c4ccccc4OCc4ccccc4)o3)cc2)cc1`, for which the IC50 in the data set on Plasmodium falciparum is 4.8 µM. Moreover, in data set [1], the CC50 at 72 h amounted to 72 µM. Further, the selectivity ratio in data set [2] was 14.8.

For the molecule `COc1ccc([C@@H]2COc3cc(O)ccc3C2)c(OC)c1O`, in the data set with Plasmodium falciparum, the outcome was inactive.
